Legend:
HOC-22 ovarian carcinoma = test: human orthotopic ovarian carcinoma mouse xenograft model HOC-22, survival; type: in vivo; settings: versus vehicle/control mice (median survival 30 days); RO 28-2653 45 mg/kg oral daily six times a week, day 7 to 21; Cisplatin 4 doses of 3 mg/kg i.v. every 4 days from day 7
Protocol: DDP=Cisplatin. […] Statistics was calculated using the log rank test. […] Cisplatin treatment consisted of 4 doses of 3 mg/kg i.v. per mouse once every 4 days, starting on day 7.

[1] = test system: MatLyLu prostate carcinoma; test: rat syngeneic orthotopic prostate carcinoma model MatLyLu, primary tumor size; type: in vivo; settings: as compared to vehicle-treated animals; RO 28-2653 100 mg/kg oral daily, Etoposide 25 mg/m^2 i.p. once daily, day 6 to day 17
Protocol: Etoposide was given intraperitoneally once daily, from day 6 to day 17, at a dose of 25 mg/m^2.

[2] = test system: PancTul pancreas carcinoma; settings: for inhibition of primary tumor growth: RO 28-2653 45 mg/kg oral daily day 7 to 30; for inhibition of primary tumor growth / Volume Primary tumor (Vm) / average number of metastases per animal: Gemcitabine 2.2 mg/kg i.p. every second day, day 7 to 30; for Volume Primary tumor (Vm) / average number of metastases per animal: RO 28-2653 45 mg/kg oral daily; for Metastasis Diaphragm / Metastasis Kidneys/Adrenal gland (capsule) / Metastasis Ligament of the uterus/testis (serosa), seminal vesicles / Metastasis Liver hilus / Metastasis Liver, in parenchyme / Metastasis Liver, on serosa / Metastasis Lung/Mediastinum / Metastasis Lymph nodes in mesentery / Metastasis Mesentery 3-20 metastasis(1-18 mm^3) / Metastasis Mesentery < 3 metastasis(^2 mm^3) / Metastasis Pelvis / Metastasis Site of surgical incision Large 80-280 mm^3 / Metastasis Site of surgical incision Medium < 50 mm^3 / Metastasis Site of surgical incision Small < 10 mm^3 / Metastasis Spleen (serosa), gastrosplenic ligament: animals with metastasis / animals in group; for Necrosis Primary tumor: animals with necrosis / animals in group; for Tumor take rate Primary tumor: animals with tumor / animals in group; for Body weight (m): mean change (spread)
Protocol: The activity of RO 28-2653 in combination with Gemcitabine was evaluated in the human orthotopic pancreas carcinoma mouse xenograft model PancTul with primary tumor size and number and size of metastases as endpoints.
Effect of the combination of RO 28-2653 and Gemcitabine on primary tumor volume in the orthotopic PancTul pancreas cancer xenograft model. Mice were treated with RO 28-2653 with daily oral doses of 45 mg/kg from day 7 until day 30. Gemcitabine treatment consisted of one intraperitoneal dose of 2.2 mg/kg every second day from day 7 to day 30.
Effect of the combination of RO 28-2653 and Gemcitabine on metastatic spread in the orthotopic PancTul pancreas cancer xenograft model. Mice were treated with RO 28-2653 with daily oral doses of 45 mg/kg from day 7 until day 30. Gemcitabine treatment consisted of one intraperitoneal dose of 2.2 mg/kg every second day from day 7 to day 30.

[3] = toxicological tests over a wide range of doses; type: in vivo; settings: side effects like those of broad-spectrum MMP inhibitors
From the text: Thus, no dose-limiting toxicities were expected with RO 28-2653, and accordingly no additional benefit from co-treatment with cytostatic/cytotoxic drugs was expected. However, to explore also the distant possibility of an additional benefit from combination treatment, such studies were initiated and conducted in various animal models. The models and cytostatic/cytotoxic drugs were chosen to reflect as broad a spectrum of oncological indications and clinically active treatment principles as possible.

SMILES | increase in lifespan (HOC-22 ovarian carcinoma) | inhibition of primary tumor growth [1] | inhibition of primary tumor growth [2] | Volume Primary tumor (Vm) [2] | average number of metastases per animal [2] | Metastasis Diaphragm [2] | Metastasis Kidneys/Adrenal gland (capsule) [2] | Metastasis Ligament of the uterus/testis (serosa), seminal vesicles [2] | Metastasis Liver hilus [2] | Metastasis Liver, in parenchyme [2] | Metastasis Liver, on serosa [2] | Metastasis Lung/Mediastinum [2] | Metastasis Lymph nodes in mesentery [2] | Metastasis Mesentery 3-20 metastasis(1-18 mm^3) [2] | Metastasis Mesentery < 3 metastasis(^2 mm^3) [2] | Metastasis Pelvis [2] | Metastasis Site of surgical incision Large 80-280 mm^3 [2] | Metastasis Site of surgical incision Medium < 50 mm^3 [2] | Metastasis Site of surgical incision Small < 10 mm^3 [2] | Metastasis Spleen (serosa), gastrosplenic ligament [2] | further results
N.N.[Cl][Pt][Cl] [Cisplatin, reference compound] | 95% | – | – | – | – | – | – | – | – | – | – | – | – | – | – | – | – | – | – | – | –
COc1cc([C@@H]2c3cc4c(cc3[C@@H](O[C@@H]3O[C@@H]5CO[C@@H](C)O[C@H]5[C@H](O)[C@H]3O)[C@H]3COC(=O)[C@H]23)OCO4)cc(OC)c1O [Etoposide, reference compound] | – | 35% | – | – | – | – | – | – | – | – | – | – | – | – | – | – | – | – | – | – | –
Nc1ccn([C@@H]2O[C@H](CO)[C@@H](O)C2(F)F)c(=O)n1 [Gemcitabine, reference compound] | – | – | 85% | Vm = 51 (±14) mm^3 | 0.4 metastases per animal | 0/13 | 0/13 | 0/13 | 0/13 | 1/13 | 1/13 | 0/13 | 0/13 | 0/13 | 0/13 | 0/13 | 0/13 | 1/13 | 2/13 | 0/13 | Necrosis Primary tumor [2]: 4/13; Tumor take rate Primary tumor [2]: 13/13; Body weight (m) [2]: m = −2 (±5)%
O=C1NC(=O)C(c2ccc(-c3ccccc3)cc2)(N2CCN(c3ccc([N+](=O)[O-])cc3)CC2)C(=O)N1 [RO 28-2653, 5-(4-biphenyl)-5-[N-(4-nitrophenyl)piperazinyl] barbituric acid] | 63% | 86% | 66% | Vm = 112 (±46) mm^3 | 2.5 metastases per animal | 3/13 | 1/13 | 0/13 | 4/13 | 3/13 | 2/13 | 2/13 | 2/13 | 5/13 | 0/13 | 0/13 | 6/13 | 3/13 | 2/13 | 0/13 | side effects [3]: no side effects; Necrosis Primary tumor [2]: 1/13; Tumor take rate Primary tumor [2]: 13/13; Body weight (m) [2]: m = −5 (±4)%
